Assay results from patent US20120129875A1, “SUBSTITUTED QUINAZOLINES AS FUNGICIDES” (SYNGENTA CROP PROTECTION, LLC, priority 2009, published 2012).

Tests used:
Format in all cases: in vivo
[1] = system: Mycosphaerella arachidis (Cercospora arachidicola); experiment: Mycosphaerella arachidis (Cercospora arachidicola) / peanut / preventative; details: peanut plants cv. Georgia Green, inoculated one day after application, vs untreated control, read-out: disease control
Method: Mycosphaerella arachidis (Cercospora arachidicola)/Peanut/Preventative 3-week old peanut plants cv. Georgia Green are treated with the formulated test compound in a spray chamber. The test plants are inoculated by spraying them with a spore suspension on their lower leaf surface one day after application. After an incubation period of 4 days under a plastic hood at 23° C. and 100% rh, the test plants are kept at 23° C./20° C. (day/night) and 70% rh in a greenhouse. The percentage leaf area covered by disease is assessed when an appropriate level of disease appears on untreated check plants (12-14 days after application).

Plasmopara viticola = Plasmopara viticola / grape / preventative (grape downy mildew); details: grape seedlings cv. Gutedel, inoculated one day after application, vs untreated control, read-out: disease control
Method: Plasmopara viticola/Grape/Preventative (Grape Downy Mildew)
5-week old grape seedlings cv. Gutedel are treated with the formulated test compound in a spray chamber. The test plants are inoculated by spraying a sporangia suspension on their lower leaf surface one day after application. The inoculated test plants are incubated at 22° C. and 100% rh in a greenhouse and the percentage leaf area covered by disease is assessed when an appropriate level of disease appears on untreated check plants (6-8 days after application).

Alternaria solani = Alternaria solani / tomato / preventative (Alternaria on tomato); details: tomato plants cv. Roter Gnom, inoculated two days after application, vs untreated control, read-out: disease control
Method: (§1) Alternaria solani/Tomato/Preventative (Alternaria on Tomato) 4-week old tomato plants cv. Roter Gnom are treated with the formulated test compound in a spray chamber. The test plants are inoculated by spraying them with a spore suspension two days after application. The inoculated test plants are incubated at 22/18° C. (day/night) and 95% rh in a greenhouse and the percentage leaf area covered by disease is assessed when an appropriate level of disease appears on untreated check plants (5-7 days after application).

[2] = system: Botryotinia fuckeliana (Botrytis cinerea); experiment: Botryotinia fuckeliana (Botrytis cinerea) / tomato / preventative (Botrytis on tomato); details: tomato plants cv. Roter Gnom, inoculated two days after application, vs untreated control, read-out: disease control
Method: as §1, with “Botryotinia fuckeliana (Botrytis cinerea)/Tomato/Preventative (Botrytis” for “Alternaria solani/Tomato/Preventative (Alternaria”, “20°” for “22/18°”, “C.” for “C. (day/night)”, “(5-6” for “(5-7”

[3] = system: Pyrenophora teres (Helminthosporium teres); experiment: Pyrenophora teres (Helminthosporium teres) / barley / preventative (net blotch on barley); details: barley plants cv. Regina, inoculated 2 days after application, vs untreated control, read-out: disease control
Method: Pyrenophora teres (Helminthosporium teres)/Barley/Preventative (Net Blotch on Barley) 1-week old barley plants cv. Regina are treated with the formulated test compound in a spray chamber. The test plants are inoculated by spraying them with a spore suspension 2 days after application. The inoculated test plants are incubated at 20° C. and 95% rh and the percentage leaf area covered by disease is assessed when an appropriate level of disease appears on untreated check plants (5-7 days after application).

[4] = system: Phaeosphaeria nodorum (Septoria nodorum); experiment: Phaeosphaeria nodorum (Septoria nodorum) / wheat / leaf disc preventative (glume blotch); details: Parastagonospora nodorum, foliar, wheat leaf segments cv. Kanzler on agar, inoculated 2 days after application, vs untreated control, read-out: disease control
Method: Phaeosphaeria nodorum (Septoria nodorum)/Wheat/Leaf Disc Preventative (Glume Blotch) Wheat leaf segments cv. Kanzler are placed on agar in a multiwell plate (24-well format) and sprayed with the formulated test compound diluted in water. The leaf disks are inoculated with a spore suspension of the fungus 2 days after application. The inoculated test leaf disks are incubated at 20° C. and 75% rh under a light regime of 12 h light/12 h darkness in a climate cabinet and the activity of a compound is assessed as percent disease control compared to untreated when an appropriate level of disease damage appears in untreated check leaf disks (5-7 days after application).

Row | SMILES | pest or weed control at 200 ppm (Plasmopara viticola) [%] | pest or weed control at 200 ppm (Alternaria solani) [%] | pest or weed control at 200 ppm [3] [%] | other results
1 | Cc1ccc(Oc2nc(-c3ncc4ccccc4n3)ccc2C)cc1 [5/17] | ≥ 80 | – | – | pest or weed control at 200 ppm [1]: ≥ 80%
2 | CCc1ccccc1-c1nc(-c2ncc3ccccc3n2)ccc1C [3/37] | ≥ 80 | ≥ 80 | – | –
3 | Cc1ccc(-c2nc(-c3ncc4ccccc4n3)ccc2C)cc1 [3/69] | ≥ 80 | – | ≥ 80 | pest or weed control at 200 ppm [2]: ≥ 80%
4 | Cc1ccc(-c2ncc3ccccc3n2)nc1-c1cc(Cl)cc(Cl)c1 [3/73] | ≥ 80 | – | ≥ 80 | –
5 | Cc1ccc(-c2ncc3ccccc3n2)nc1Cc1ccccc1Cl [7/19] | ≥ 80 | – | – | pest or weed control at 200 ppm [2]: ≥ 80%
6 | Fc1ccc(Sc2cccc(-c3ncc4ccccc4n3)n2)cc1 [9/4] | – | ≥ 80 | ≥ 80 | –
7 | Cc1ccc(-c2ncc3cc(N)ccc3n2)nc1-c1ccccc1 [11/2] | ≥ 80 | – | – | –
8 | Cc1ccccc1-c1cccc(-c2ncc3ccccc3n2)n1 [2/4] | – | ≥ 80 | – | –
9 | Cc1ccccc1Oc1cccc(-c2ncc3ccccc3n2)n1 [4/22, 2-(6-o-tolyloxypyridin-2-yl)-quinazoline] | ≥ 80 | ≥ 80 | ≥ 80 | –
10 | CCOc1ccccc1-c1cccc(-c2ncc3ccccc3n2)n1 [2/30] | ≥ 80 | ≥ 80 | – | –
11 | COc1ccc(Cl)cc1-c1nc(-c2ncc3ccccc3n2)ccc1C [3/95] | ≥ 80 | ≥ 80 | ≥ 80 | –
12 | Cc1ccc(-c2nc(-c3ncc4ccccc4n3)ccc2C)cc1C [3/11] | ≥ 80 | ≥ 80 | – | –
13 | Cc1ccc(F)c(-c2cccc(-c3ncc4ccccc4n3)n2)c1 [2/79] | ≥ 80 | – | – | –
14 | Cc1ccc(-c2ncc3ccccc3n2)nc1Sc1ccccc1Cl [9/7] | – | ≥ 80 | ≥ 80 | –
15 | COc1ccc(OC)c(-c2cccc(-c3ncc4ccccc4n3)n2)c1 [2/46] | ≥ 80 | ≥ 80 | – | –
16 | COc1ccccc1-c1cccc(-c2ncc3ccccc3n2)n1 [2/15] | – | ≥ 80 | – | –
17 | Cc1ccc(-c2ncc3ccccc3n2)nc1-c1ccccc1Br [3/36] | ≥ 80 | ≥ 80 | – | pest or weed control at 200 ppm [2]: ≥ 80%
18 | Brc1ccccc1-c1cccc(-c2ncc3ccccc3n2)n1 [2/26] | ≥ 80 | – | – | pest or weed control at 200 ppm [1]: ≥ 80%
19 | COc1cccc(-c2nc(-c3ncc4ccccc4n3)ccc2C)c1 [3/84] | ≥ 80 | ≥ 80 | ≥ 80 | –
20 | COc1ccc(-c2nc(-c3ncc4ccccc4n3)ccc2C)cc1 [3/70] | – | ≥ 80 | ≥ 80 | –
21 | Fc1ccc(-c2cccc(-c3ncc4ccccc4n3)n2)c(F)c1 [2/28] | ≥ 80 | ≥ 80 | ≥ 80 | –
22 | Cc1ccc(-c2cccc(-c3ncc4ccccc4n3)n2)c(C)c1 [2/94] | ≥ 80 | ≥ 80 | – | –
23 | Cc1cc(F)ccc1-c1nc(-c2ncc3ccccc3n2)ccc1C [3/17] | – | ≥ 80 | – | –
24 | Clc1ccccc1Sc1cccc(-c2ncc3ccccc3n2)n1 [9/8] | – | ≥ 80 | ≥ 80 | –
25 | COc1cccc(F)c1-c1cccc(-c2ncc3ccccc3n2)n1 [2/70] | ≥ 80 | ≥ 80 | – | –
26 | COc1ccc(-c2cccc(-c3ncc4ccccc4n3)n2)c(C)c1 [2/66] | – | ≥ 80 | – | pest or weed control at 200 ppm [4]: ≥ 80%
27 | c1cc(Oc2ccc3ccccc3c2)nc(-c2ncc3ccccc3n2)c1 [4/10] | ≥ 80 | ≥ 80 | – | –
28 | Cc1ccc(-c2ncc3ccccc3n2)nc1Cc1ccc(Cl)cc1 [7/18] | – | ≥ 80 | ≥ 80 | –

Row | SMILES | pest or weed control at 200 ppm (Plasmopara viticola) [%] | pest or weed control at 200 ppm (Alternaria solani) [%] | pest or weed control at 200 ppm [3] [%] | other results
29 | CSc1ccc(Oc2nc(-c3ncc4ccccc4n3)ccc2C)cc1 [5/4] | ≥ 80 | ≥ 80 | – | –
30 | Cc1ccc(-c2ncc3cc(Cl)ccc3n2)nc1-c1ccccc1 [11/5] | ≥ 80 | – | ≥ 80 | –
31 | Cc1cccc(-c2cccc(-c3ncc4ccccc4n3)n2)c1C [2/9] | ≥ 80 | ≥ 80 | ≥ 80 | –
32 | COc1ccc(F)cc1-c1cccc(-c2ncc3ccccc3n2)n1 [2/32] | – | ≥ 80 | ≥ 80 | –
33 | COc1ccc(C)cc1-c1cccc(-c2ncc3ccccc3n2)n1 [2/38] | – | ≥ 80 | – | pest or weed control at 200 ppm [4]: ≥ 80%
34 | Cc1cccc(-c2cccc(-c3ncc4ccccc4n3)n2)c1 [2/3] | ≥ 80 | ≥ 80 | ≥ 80 | –
35 | Cc1ccc(-c2ncc3ccccc3n2)nc1C [10/3] | ≥ 80 | – | – | –
36 | Cc1cc(C)cc(-c2nc(-c3ncc4ccccc4n3)ccc2C)c1 [3/86] | ≥ 80 | ≥ 80 | ≥ 80 | –
37 | COc1cccc(Sc2cccc(-c3ncc4ccccc4n3)n2)c1 [9/2] | ≥ 80 | ≥ 80 | ≥ 80 | –
38 | COc1ccc(F)c(-c2nc(-c3ncc4ccccc4n3)ccc2C)c1 [3/56] | ≥ 80 | ≥ 80 | – | pest or weed control at 200 ppm [1]: ≥ 80%
39 | COc1ccccc1Oc1cccc(-c2ncc3ccccc3n2)n1 [4/15] | – | – | ≥ 80 | –
40 | Cc1ccc(-c2ncc3ccccc3n2)nc1Sc1ccccc1 [9/6] | – | ≥ 80 | ≥ 80 | –
41 | Clc1ccccc1Oc1cccc(-c2ncc3ccccc3n2)n1 [4/23] | – | – | ≥ 80 | –
42 | Cc1ccc(-c2ncc3ccccc3n2)nc1-c1ccccc1Cl [3/46] | ≥ 80 | ≥ 80 | – | pest or weed control at 200 ppm [1]: ≥ 80%
43 | Fc1cccc(F)c1Cc1cccc(-c2ncc3ccccc3n2)n1 [6/26] | – | – | – | pest or weed control at 200 ppm [4]: ≥ 80%
44 | Cc1ccc(-c2ncc3ccccc3n2)nc1-c1cccc([N+](=O)[O-])c1 [3/104] | – | – | – | pest or weed control at 200 ppm [4]: ≥ 80%
45 | N#Cc1ccc(Cc2cccc(-c3ncc4ccccc4n3)n2)cc1 [6/31] | – | – | – | pest or weed control at 200 ppm [4]: ≥ 80%
46 | CC(=O)c1cccc(-c2nc(-c3ncc4ccccc4n3)ccc2C)c1 [3/133] | – | – | – | pest or weed control at 200 ppm [4]: ≥ 80%
47 | CSc1cccc(-c2nc(-c3ncc4ccccc4n3)ccc2C)c1 [3/125] | – | – | – | pest or weed control at 200 ppm [4]: ≥ 80%
48 | CCCc1nc(-c2cccc(C(Cc3ccccc3)c3ccccc3)n2)nc2ccccc12 (stereo not drawn) [12/13] | – | – | – | pest or weed control at 200 ppm [4]: ≥ 80%
49 | Cc1ccc2nc(-c3ccc(C)c(-c4ccccc4)n3)ncc2c1 [11/4] | – | ≥ 80 | ≥ 80 | –
50 | COc1cc(F)ccc1-c1cccc(-c2ncc3ccccc3n2)n1 [2/90] | ≥ 80 | ≥ 80 | ≥ 80 | –
51 | COc1ccc(-c2cccc(-c3ncc4ccccc4n3)n2)c(OC)c1 [2/33] | – | ≥ 80 | – | –
52 | Cc1ccc(Cc2cccc(-c3ncc4ccccc4n3)n2)cc1Cl [6/42] | – | – | – | pest or weed control at 200 ppm [4]: ≥ 80%
53 | Cc1ccc(-c2ncc3ccccc3n2)nc1Oc1cccc2ccccc12 [5/13] | – | ≥ 80 | ≥ 80 | –
54 | OCc1cc(F)ccc1-c1cccc(-c2ncc3ccccc3n2)n1 [2/117] | – | – | – | pest or weed control at 200 ppm [4]: ≥ 80%
55 | c1ccc(-c2ccccc2Cc2cccc(-c3ncc4ccccc4n3)n2)cc1 [6/21] | – | – | – | pest or weed control at 200 ppm [4]: ≥ 80%
